Assay results: PMC4149317 (Acta biomaterialia, 2013)
Each block holds one substance with its values, some of them ahead of it.

What was measured:
VEGF (rhVEGF165) [1] = biological target: T1, VEGF (rhVEGF165) (Homo sapiens, UniProt P15692); test: VEGF binding to PEG microspheres in serum-containing and albumin-only solutions; conditions: 0.4% peptide density, albumin-only solution (1.25 wt.% BSA in PBS); p < 0.05 (Fig. 2D)
T1 sequence (P15692 1-191 isoform P15692-4): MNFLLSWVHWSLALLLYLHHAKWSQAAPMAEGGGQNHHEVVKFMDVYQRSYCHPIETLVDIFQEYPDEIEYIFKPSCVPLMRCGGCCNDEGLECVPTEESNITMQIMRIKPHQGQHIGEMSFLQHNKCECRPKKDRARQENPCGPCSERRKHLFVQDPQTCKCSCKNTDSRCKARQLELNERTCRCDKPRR

[2] = ref [27], cited from earlier work
VEGF = conditions: soluble VBP vs soluble VBPWT; ref [27]; cited from earlier work
endothelial cells = conditions: VEGF supplement to endothelial cells; ref [30]; cited from earlier work
VEGF (rhVEGF165) [3] = biological target: T1, VEGF (rhVEGF165); test: Heparin modulation of VEGF binding to microspheres

KD, VBP-VEGF vs VBPWT-VEGF, albumin-only solution (VEGF (rhVEGF165) [1]): exhibited a lower KD than VBPWT-VEGF
Substance: CEFdAdYdLdIDFNWEYPASK [VBP]
Stability against protease-mediated degradation ([2]; four D-substituted amino acids vs wild-type): enhanced peptide stability against protease-mediated degradation
Serum stability of soluble peptide ([2]; soluble VBP vs soluble VBPWT): higher than that of soluble VBPWT
VEGF binding affinity of soluble peptide (VEGF): higher than that of soluble VBPWT

Substance: VEGF
Endothelial proliferation below 1 ng ml^−1 VEGF (endothelial cells): proliferation is decreased at VEGF concentrations below 1 ng ml^−1
VEGF concentration of maximal endothelial proliferation (endothelial cells): 1 to 1.2 ng/mL

Effect of soluble heparin on specificity of VEGF binding (VEGF (rhVEGF165) [3]; 10 µg ml^−1 UFH in albumin-containing solution, 1.6% peptide density (Fig. 3C)): reduced non-specific binding of VEGF
Effect of soluble heparin on VEGF binding affinity (VEGF (rhVEGF165) [3]; physiologic level of soluble heparin, UFH 10 µg ml^−1): increased VEGF binding affinity
Substance: heparin
